Earlier results in PMC4537502 (Psychopharmacology, 2015).

How the values were obtained:
sigma-1R = details: ref Sahlholm et al. [2013], cited from earlier work
D2R [1] = target: D2R; parameters: method as in Pettersson et al. [2010]; details: ref Pettersson et al. [2010]; read-out: high-affinity Ki at D2R; cited from earlier work
D2R [2] = system: D2R; parameters: method as in Tolboom et al. [2015]; details: human subjects, ref Tolboom et al. [2015], cited from earlier work
striatal D2Rs = system: striatal D2Rs; parameters: method as in Ekesbo et al. ([1999]); details: rhesus monkeys, continuous infusion 3 mg/kg/h, ref Ekesbo et al. ([1999]); cited from earlier work

Q: For `CCCN1CCC[C@@H](c2cccc(S(C)(=O)=O)c2)C1` [(−)-OSU6162], which Ki (sigma-1R; ^3H-(+)-pentazocine competition, read-out: high-affinity Ki at sigma-1R) is on record?
A: ~360 nM

Q: What about the “affinity for sigma-1R relative to D2R” value (sigma-1R; Pettersson et al. [2010]) of the same compound?
A: about two times higher affinity for sigma-1R than for D2R

Q: And the Ki (D2R [1])?
A: 760 nM

Q: What about the D2R occupancy (D2R [2]; doses 15 to 90 mg (0.14 to 1.25 mg/kg)) of the same compound?
A: 2 to 33%

Q: And the “level at which the dose-occupancy curve appeared to level off” value (D2R [2])?
A: 40%

Q: And the “displacement of ^11C-raclopride” value (striatal D2Rs)?
A: 76%
